Test results published in patent US20090042839A1, “Crystalline forms of ibandronate sodium” (priority 2007, published 2009).

Tests used:
[1] = Stability of crystalline forms of ibandronate sodium when stored for 3 months at room temperature (polymorphic form by XRD); format: physicochemical; conditions: for crystalline form after storage: storage at room temperature for 3 months; for Results (crystalline form after storage): stored at 25° C., polyethylene bags in closed Aluminium bags, monosodium salt
Method: The x-ray powder diffraction was performed on Scintag X-ray powder diffractometer model X'TRA with a solid state detector at room temperature. Copper radiation of 1.5418 Å was used. The sample holder was a round standard aluminum sample holder with rough zero background. The scanning parameters were range: 2-40 degrees two-theta; scan mode: continuous scan; step size: 0.05 degrees; and at a rate of 5 degrees/minute. […]

[2] = Storage of crystalline ibandronate sodium Form C at room temperature for 2 years, retested by XRD; format: physicochemical; conditions: stored at room temperature for 2 years
Method: The x-ray powder diffraction was performed on Scintag X-ray powder diffractometer model X'TRA with a solid state detector at room temperature. Copper radiation of 1.5418 Å was used. The sample holder was a round standard aluminum sample holder with rough zero background. The scanning parameters were range: 2-40 degrees two-theta; scan mode: continuous scan; step size: 0.05 degrees; and at a rate of 5 degrees/minute.
Crystalline ibandronate sodium Form C was stored at room temperature for 2 years.

Row | Structure (SMILES) | crystalline form after storage [1] | Results (crystalline form after storage) ([1]; 1 month) | Results (crystalline form after storage) ([1]; 3 months) | crystalline form found by XRD after storage [2]
1 | CCCCCN(C)CCC(O)(P(=O)([O-])O)P(=O)(O)O.[Na+] [Form C2, (1-hydroxy-3-(N-methyl-N-pentylamino)propylidene) bisphosphonic acid monosodium salt] | maintained their crystalline form | – | – | –
2 | CCCCCN(C)CCC(O)(P(=O)([O-])O)P(=O)(O)O.[Na+] [Form Alpha, (1-hydroxy-3-(N-methyl-N-pentylamino)propylidene) bisphosphonic acid monosodium salt] | maintained their crystalline form | Alpha | Alpha | –
3 | CCCCCN(C)CCC(O)(P(=O)([O-])O)P(=O)(O)O.[Na+] [Form n-butanolate, (1-hydroxy-3-(N-methyl-N-pentylamino)propylidene) bisphosphonic acid monosodium salt] | maintained their crystalline form | n-butanolate | n-butanolate | –
4 | CCCCCN(C)CCC(O)(P(=O)([O-])O)P(=O)(O)O.[Na+] [Form C, (1-hydroxy-3-(N-methyl-N-pentylamino)propylidene) bisphosphonic acid monosodium salt, reference compound] | maintained their crystalline form | – | – | crystalline ibandronate sodium Form V
